The source of these data is patent US20140018545A1, “Inhibitors of Dipeptidylpeptidase IV” (Trustees of Tufts College, priority 2004, published 2014).

One assay has as its target DP9 (Homo sapiens, UniProt Q86TI2). Put plainly: Dipeptidyl peptidase 9 inhibition assay (Example 1 assay with DP9 substituted for DPIV). Type of assay: biochemical. As to conditions: for DP9/DPIV ratio: ratio of IC50 values, selectivity for DPIV. How it is done:
In this example, the assay was conducted for DPIV and DP9. The ratio of IC50 values for each tested compound was calculated in order to determine the selectivity for the DPIV isoform. IC50 values were measured at the same pH throughout the assay.

In assay [1] the target is T1, DPIV (Homo sapiens, UniProt P27487). Put plainly: DPIV inhibition assay (L-alanyl-L-proline-para-nitroanilide substrate, absorbance at 410 nm).
T1 sequence (P27487 whole entry): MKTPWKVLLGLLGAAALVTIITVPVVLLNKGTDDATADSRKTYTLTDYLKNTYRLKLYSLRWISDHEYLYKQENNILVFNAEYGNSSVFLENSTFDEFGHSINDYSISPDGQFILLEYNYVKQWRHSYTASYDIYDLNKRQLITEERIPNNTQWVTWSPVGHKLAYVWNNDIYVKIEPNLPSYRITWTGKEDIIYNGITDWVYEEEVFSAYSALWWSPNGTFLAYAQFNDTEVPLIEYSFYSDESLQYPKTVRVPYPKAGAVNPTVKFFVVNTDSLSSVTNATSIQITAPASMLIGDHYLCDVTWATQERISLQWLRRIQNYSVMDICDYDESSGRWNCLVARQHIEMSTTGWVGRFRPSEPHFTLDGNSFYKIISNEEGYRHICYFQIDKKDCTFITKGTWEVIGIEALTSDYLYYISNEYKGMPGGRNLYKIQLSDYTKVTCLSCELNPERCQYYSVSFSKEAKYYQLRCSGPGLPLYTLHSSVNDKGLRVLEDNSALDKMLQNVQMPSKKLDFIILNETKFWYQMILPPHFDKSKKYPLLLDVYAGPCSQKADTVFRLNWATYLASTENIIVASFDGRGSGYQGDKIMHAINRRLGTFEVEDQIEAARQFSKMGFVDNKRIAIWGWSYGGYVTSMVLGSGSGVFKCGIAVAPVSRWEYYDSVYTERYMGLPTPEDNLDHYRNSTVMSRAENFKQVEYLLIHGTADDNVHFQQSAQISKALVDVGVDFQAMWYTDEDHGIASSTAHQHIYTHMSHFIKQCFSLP
Procedure: (§1) The inhibitor solution was prepared by dissolving 3-5 mg of inhibitor in pH 2 solution (0.01 N HCl), such that the concentration of the solution was equal to 1 mg/10 μL. A 10 μL sample of this solution was then added to 990 μL of pH 8 buffer (0.1 M HEPES, 0.14 M NaCl), and the solution was allowed to stand at room temperature overnight.
(§2) The substrate solution was prepared by dissolving 2.0 mg of L-alanyl-L-proline-para-nitroanilide into 20 mL of pH 8 buffer.
(§3) 250 μL of enzyme solution was added to well #B1 to #H1, #A2 to #H2, and #A3 to #H3 of a 96 well plate, while well #A1 received 250 μL of pH 8 buffer instead of enzyme solution. 90 μL of pH 8 buffer was then added to column 5 (from well #A5 to #H5).
(§4) A 1:10 dilution was then performed by adding inhibitor solution to #A5 and the solution was mixed well before transferring 10 μL of this solution from #A5 to #B5. The solution in #B5 was then mixed well before transferring 10 μL of this solution from #B5 to #C5. The solution in #C5 was then mixed well before transferring 10 μL of this solution from #C5 to #D5. The solution in #D5 was then mixed well before transferring 10 μL of this solution from #D5 to #E5. The solution in #E5 was then mixed well before transferring 10 μL of this solution from #E5 to #F5. The solution in #F5 was then mixed well before transferring 10 μL of this solution from #F5 to #G5. The solution in #G5 was then mixed well before transferring 10 μL of this solution from #G5 to #H5.
(§5) A 30 μL aliquot was then transferred from #H5 to #H3 for row H, and the contents were mixed well. The analogous procedure was repeated for rows G, F, E, D, C, B, and A sequentially. The plate was then shaken on a plate shaker for 5 minutes before allowing the plate to incubate at room temperature for an additional 5 minutes.
(§6) Once the plate had been allowed to incubate, 30 μL of substrate was added to each well except well #A1. The plate was then placed on a plate shaker for 5 minutes before allowing the plate to incubate at room temperature for 25 minutes. The absorbance was then immediately read at a wavelength of 410 nm.
Assay [2] concerns the target T1, DPIV. The conditions noted are these: pH 8.
Procedure: as §1, §2, §3, §4, §5, §6
In the next assay the target is DP8 (Homo sapiens, UniProt Q6V1X1). Put plainly: Dipeptidyl peptidase 8 inhibition assay (Example 1 assay with DP8 substituted for DPIV). The conditions noted are these: at the pH values tested. The class given is biochemical. How it is done:
L-Ala-[5-(HOCH2)-2-boroPro] was also tested to determine its inhibition of dipeptidyl peptidases 8 and 9 (DP8 and DP9). The assay is the same as that described in Example 1, except that DP8 or DP9 was substituted for DPIV.

Where [3] appears, read: Example 6, same pH throughout the assay (pH not stated), read-out: DP9 IC50.
[4] abbreviates: read-out: DPIV IC50, Example 6, same pH throughout the assay (pH not stated).

Read-outs that look alike come from different tables or passages of the source.

DP9, sequence (Q86TI2 whole entry, species assumed, canonical isoform): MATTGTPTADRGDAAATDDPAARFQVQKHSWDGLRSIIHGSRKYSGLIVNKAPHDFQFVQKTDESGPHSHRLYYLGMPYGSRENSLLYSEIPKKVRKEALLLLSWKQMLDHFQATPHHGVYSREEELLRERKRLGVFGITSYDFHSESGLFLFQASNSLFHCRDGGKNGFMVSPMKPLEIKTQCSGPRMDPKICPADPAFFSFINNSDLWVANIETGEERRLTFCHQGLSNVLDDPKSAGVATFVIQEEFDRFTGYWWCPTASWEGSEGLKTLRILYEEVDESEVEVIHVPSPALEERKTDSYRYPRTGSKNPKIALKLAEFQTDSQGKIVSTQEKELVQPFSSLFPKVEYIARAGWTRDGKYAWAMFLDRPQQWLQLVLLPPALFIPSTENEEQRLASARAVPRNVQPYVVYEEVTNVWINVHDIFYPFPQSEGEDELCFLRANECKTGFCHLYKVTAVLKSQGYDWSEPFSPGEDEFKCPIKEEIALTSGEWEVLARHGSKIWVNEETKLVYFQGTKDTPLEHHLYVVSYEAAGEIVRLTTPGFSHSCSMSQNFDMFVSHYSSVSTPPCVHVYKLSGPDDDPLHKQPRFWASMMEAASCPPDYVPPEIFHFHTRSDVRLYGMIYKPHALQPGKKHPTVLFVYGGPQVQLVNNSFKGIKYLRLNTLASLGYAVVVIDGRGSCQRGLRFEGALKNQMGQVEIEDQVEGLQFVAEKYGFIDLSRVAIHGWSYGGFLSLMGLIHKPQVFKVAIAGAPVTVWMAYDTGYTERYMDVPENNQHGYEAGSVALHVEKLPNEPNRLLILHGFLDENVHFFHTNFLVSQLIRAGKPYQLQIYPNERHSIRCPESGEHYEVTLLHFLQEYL
DP8, sequence (Q6V1X1 whole entry, species assumed): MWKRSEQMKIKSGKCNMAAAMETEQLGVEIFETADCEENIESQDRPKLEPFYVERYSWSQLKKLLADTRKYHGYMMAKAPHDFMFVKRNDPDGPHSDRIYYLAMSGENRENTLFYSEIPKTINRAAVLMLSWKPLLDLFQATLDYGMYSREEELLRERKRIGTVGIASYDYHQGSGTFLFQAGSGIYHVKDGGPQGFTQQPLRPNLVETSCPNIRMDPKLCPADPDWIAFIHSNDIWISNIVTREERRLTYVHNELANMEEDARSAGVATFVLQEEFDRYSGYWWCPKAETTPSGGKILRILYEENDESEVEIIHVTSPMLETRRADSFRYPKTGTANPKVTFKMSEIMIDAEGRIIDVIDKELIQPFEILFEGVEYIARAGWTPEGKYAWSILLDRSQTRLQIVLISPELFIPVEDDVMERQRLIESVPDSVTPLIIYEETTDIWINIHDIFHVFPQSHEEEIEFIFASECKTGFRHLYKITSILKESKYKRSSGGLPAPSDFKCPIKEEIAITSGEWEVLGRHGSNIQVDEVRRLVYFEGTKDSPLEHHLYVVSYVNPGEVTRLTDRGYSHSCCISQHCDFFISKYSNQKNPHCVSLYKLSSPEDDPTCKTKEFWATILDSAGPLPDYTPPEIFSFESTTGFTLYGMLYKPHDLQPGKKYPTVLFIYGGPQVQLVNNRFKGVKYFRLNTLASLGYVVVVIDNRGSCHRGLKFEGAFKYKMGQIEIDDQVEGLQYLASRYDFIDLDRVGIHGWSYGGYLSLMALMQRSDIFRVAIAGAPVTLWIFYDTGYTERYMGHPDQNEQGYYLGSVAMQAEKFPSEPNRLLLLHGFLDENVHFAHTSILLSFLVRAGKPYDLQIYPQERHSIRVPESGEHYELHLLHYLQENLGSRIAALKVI

On to `N=C(N)NCCC[C@H](N)C(=O)N1CCC[C@H]1B(O)O` [Arg-boroPro], for which the IC50 at DP9 (setting [3]) amounted to 0.824 µM; on DPIV [1] (DPIV IC50 (nM), Example 6, same pH throughout the assay (pH not stated)), 2 nM. Moreover, the DP9/DPIV ratio on DP9 was found to be 412.
Turning to `C[C@H](NC(=O)[C@@H](N)CC(=O)O)B(O)O` [Asp-boroAla], the IC50 is 5000 µM at DP9 (setting [3]) and 797000 nM on DPIV [1] (setting [4]). Moreover, on DP9, the DP9/DPIV ratio came out at 6.28.
As to `N[C@@H](CCC(=O)O)C(=O)N1CCC[C@H]1B(O)O` [Glu-boroPro], the IC50 came out at 2.4 µM at DPIV [2] and 3 nM on DPIV [1] (setting [4]).
As to `C[C@H](NC(=O)[C@@H](N)CCCN=C(N)N)B(O)O` [Arg-boroAla], the IC50 was found to be 0.023 µM on DP9 (setting [3]) and 8 nM at DPIV [1] (setting [4]). Also, the DP9/DPIV ratio on DP9 is 2.88.
As for `CC[C@H](NC(=O)[C@@H](N)CCC(=O)O)B(O)O` [Glu-boroEtg], at DPIV [1] (IC50, DPIV, pH 8), the half-maximal inhibitory concentration (IC50) was 49 nM.
With Arg-boroEtGly, the IC50 on DP9 (setting [3]) was 0.007 µM; on DPIV [1] (setting [4]) it was 10 nM. On DP9, the DP9/DPIV ratio stood at 0.70.
`C[C@H](N)C(=O)N1C(CO)CCC1B(O)O` (stereo partly drawn) [L-Ala-[5-(HOCH2)-2-boroPro]]: the IC50 on DP9 (DP9, at the pH values tested, read-out: IC50) was more than 70 µM; on DP9 (setting [3]), 28000 µM; on DPIV [1] (setting [4]) it was 40 nM; on DPIV [1] (read-out: IC50 at pH 2, DPIV, pH 2) it was 21.9 nM; at DPIV [1] (read-out: IC50 at pH 8, DPIV, pH 8) it was 12900 nM; against DP8, more than 70 µM. Also, on DP9 (in words, based on the IC50 ratios of Example 6), the “selectivity for DPIV over DP9” value was “highly selective for DPIV”. The DP9/DPIV ratio at DP9 is listed as 700,000.
Regarding `CC1CC[C@@H](B(O)O)N1C(=O)[C@H](C)N` (stereo partly drawn) [L-Ala-5-Me-boroPro], the IC50 is 11 nM at DPIV [1] (IC50 at pH 2, DPIV, pH 2) and 15400 nM at DPIV [1] (IC50 at pH 8, DPIV, pH 8).
